From patent US20130324413A1, “METHOD FOR PROMOTING PLANT GROWTH” (SUMITOMO CHEMICAL COMPANY, LIMITED, priority 2011, published 2013)

Tests used:
Type in all cases: in vivo
[1] = tested on: oilseed rape (Brasicca napus); test: Test Example 5: oilseed rape field application, percentage of green pods; settings: flowable formulation, 250 g per hectare at day 253 (BBCH 65); assessed day 323 (BBCH 85); non-treated 12.75%
Description: Seeds of oilseed rape (Brasicca napus) were sown and grown. At day 253 after the sowing, at growth stage 65, according to the Biologische Bundesanstalt, Bundessortenamt and CHemical industry (BBCH) scale, the flowable formulation prepared as described in Formulation Example 2 containing compound (1b) was applied in an amount of 250 g per hectare. A plot for the treatment measured 6 m×10 m. This plot was the present compound-treated group. A plot treated with the formulation without compound (1b) was used as the non-treated group, in which plants were cultivated in the same manner as in the present compound-treated group.
At day 323 after the sowing, when almost all the plants entered growth stage 85, according to the BBCH scale, the percentage of pods remaining green among the pods of the plants was examined and determined in both the present compound-treated and non-treated groups.

[2] = tested on: Corn (cultivar: DeKalb 61-69); test: Test Example 4: field corn foliage spraying, percentage of green leaves; settings: assessed 143 days after sowing (R6), non-treated 23.8%
Description: Corn seeds (cultivar: DeKalb 61-69) were sown at 33,684 seeds per acre and grown. Each plot in the field for treatment measured 10 feet in width and 15.5 feet in length. The treatments were arranged using the Randomized Complete Block Design method with eight replications for each treatment. Groups treated with the formulation without compound (1b) were used as the non-treated groups, in which corn was cultivated in the same manner as in the present compound-treated groups. The flowable formulation prepared as described in Formulation Example 2 was applied by foliage spraying 111 days after the sowing, at developmental stage R3 of maize. The percentage of green leaves among the leaves upper to the lowest ear of corn was determined for each formulation-treated group 143 days after the sowing, at developmental stage R6 of maize. As a result, the percentages were 41.3% and 45.6% on average, respectively, in the groups treated with 100 g and 300 g per hectare of compound (1b), while the percentage was 23.8% on average in the non-treated groups.

[3] = tested on: corn plants (cultivar: Koshu); test: Test Example 9: corn seed soaking, low-temperature stress, fresh weight of above-ground part; settings: for Average fresh weight of above-ground part: low-temperature stress 3±2° C. 7 days, non-treated 1.18 g
Procedure: Each of the 1,000-fold concentrated dimethylsulfoxide (DMSO) solutions of compound (1b) was 1,000-fold diluted with water to prepare a soultion of compound (1b) at the test concentration. The solution was dispensed in 30 ml aliquots into […] Petri dishes, in which seeds of corn plants (cultivar: Koshu) were soaked and incubated for 16 hours at 24° C. in the dark. The corn seeds were sown in the culture soil (AISAI) in the plastic pots (55 mm in diameter×58 mm in height), and corn seedlings were grown for 4 days under the following conditions: temperature, 27° C.; illuminance, about 5,000 lux; day length, 16 hours. As a control, a 0.1% aqueous DMSO solution was prepared, and seeds were soaked in this solution and then sown and grown into seedlings in the same way as described above. This group was used as the non-treated group. The corn seedlings were placed in a phytotron under the following conditions in order to expose the plants to low-temperature stress for 7 days. • Conditions: “temperature, 3±2° C.; day length, 16 hours; • illuminance, about 5,000 lux; humidity, 35 to 80%” The plants were then grown for another 7 days under the following conditions: temperature, 27° C.; humidity, 50 to 75%, illuminance, about 5,000 lux; day length, 16 hours. Then the fresh weight of the above-ground part of the plants was measured. The experiment was performed in four replications for each individual plant for each treatment condition and the average weight per individual was calculated.

[4] = tested on: Basil (cultivar: Sweet Basil; Takii); test: Test Example 10: basil seedling spraying, low-temperature stress, fresh weight and damage score; settings: for Fresh weight of above-ground part: low-temperature stress 3.0° C., non-treated 0.34 g; for Damage score: score 0 (completely killed) to 100 (survived without any damage), survived leaf area, non-treated 17
Procedure: Basil seeds (cultivar: Sweet Basil; Takii) were sown in the culture soil (AISAI) in plastic pots (55 mm in diameter×58 mm in height) and grown for 24 days under the following conditions to obtain a basil seedling per pot: temperature, 27° C.; humidity, 50 to 75%; illuminance, about 6,000 lux; day length, 16 hours.
Compound (1b). was dissolved in dimethylsulfoxide (DMSO) to obtain a DMSO solution of compound (lb) at a 1,000-fold concentration relative to the test concentration. This DMSO solution of compound (1b) was 1,000-fold diluted with water. Then Triton X-100 was added as a surfactant to a final concentration of 0.1%. The spray solution thus prepared was applied in a sufficient amount (15 ml per 3 pots) by means of a handspray.
As a control, a spray solution without compound (ib) was prepared and then sprayed to the non-treated group. The plants were further grown for 1 day under the following conditions: temperature, 27° C.; humidity, 50 to 75%; illuminance, about 6,000 lux; day length, 16 hours.
Subsequently, the basil seedlings were placed in a phytotron under the following conditions, to expose the plants to low-temperature stress. • Conditions: “temperature, 3.0° C.; illuminance, 800 lux; • humidity, 50 to 80%”
The plants were further grown for another 2 days under the following conditions: temperature, 27° C.; humidity, 50 to 75%, illuminance, about 6,000 lux; day length, 16 hours.
The percentage of the leaf area of the portions of true leaves of the basil seedlings which survived without being damaged was scored as follows: completely killed with 0% of the survived leaf area to the total leaf area: 0; survived without any damage with 100% of the survived leaf area to the total leaf: 100; and scored from 0 to 100 by increment of 1 by visual observation. The scores of three plants were averaged to determine the damage score. The aerial part of the basil seedlings was removed to measure the fresh weight of the above-ground part. The average weight of three individuals was recorded as the fresh weight of the above-ground part.

CNC(=O)C(OC)c1ccccc1COc1cc(C)ccc1C (racemic) [Compound (1b), N-methyl-2-[2-(2,5-dimethylphenoxy)methyl]phenyl-2-methoxyacetamide]
percentage of green pods [1]: 22.25%
percentage of green leaves among the leaves upper to the lowest ear (average) ([2]; foliage spraying 100 g per hectare at 111 days (R3)): 41.3%
percentage of green leaves among the leaves upper to the lowest ear (average) ([2]; foliage spraying 300 g per hectare at 111 days (R3)): 45.6%
fresh weight of the above-ground part as compared with the non-treated group ([3]; plants exposed to low-temperature stress, concentration range of 3 ppm to 30 ppm): increased
Average fresh weight of above-ground part ([3]; seed soaking 3 ppm): 1.49 g
Average fresh weight of above-ground part ([3]; seed soaking 10 ppm): 2.25 g
Average fresh weight of above-ground part ([3]; seed soaking 30 ppm): 1.35 g
Fresh weight of above-ground part ([4]; spray 10 ppm): 0.62 g
Damage score ([4]; spray 10 ppm): 30
Fresh weight of above-ground part ([4]; spray 30 ppm): 0.72 g
Damage score ([4]; spray 30 ppm): 38
Fresh weight of above-ground part ([4]; spray 100 ppm): 0.92 g
Damage score ([4]; spray 100 ppm): 81
Fresh weight of above-ground part ([4]; spray 250 ppm): 0.94 g
Damage score ([4]; spray 250 ppm): 68
